Like-named read-outs stand apart in the source and are kept apart here. Where only a bound is given, the exact number is not on record here.

For data set [1], the target named is T1, perforin produced by an intact NK cell line (KHYG-1) (Homo sapiens, UniProt P14222).
T1 construct: the perforin is delivered by a functional NK cell; endogenous in cells; host or cells: KHYG-1 NK cells (K562 target cells)
T1 sequence (P14222 22-555): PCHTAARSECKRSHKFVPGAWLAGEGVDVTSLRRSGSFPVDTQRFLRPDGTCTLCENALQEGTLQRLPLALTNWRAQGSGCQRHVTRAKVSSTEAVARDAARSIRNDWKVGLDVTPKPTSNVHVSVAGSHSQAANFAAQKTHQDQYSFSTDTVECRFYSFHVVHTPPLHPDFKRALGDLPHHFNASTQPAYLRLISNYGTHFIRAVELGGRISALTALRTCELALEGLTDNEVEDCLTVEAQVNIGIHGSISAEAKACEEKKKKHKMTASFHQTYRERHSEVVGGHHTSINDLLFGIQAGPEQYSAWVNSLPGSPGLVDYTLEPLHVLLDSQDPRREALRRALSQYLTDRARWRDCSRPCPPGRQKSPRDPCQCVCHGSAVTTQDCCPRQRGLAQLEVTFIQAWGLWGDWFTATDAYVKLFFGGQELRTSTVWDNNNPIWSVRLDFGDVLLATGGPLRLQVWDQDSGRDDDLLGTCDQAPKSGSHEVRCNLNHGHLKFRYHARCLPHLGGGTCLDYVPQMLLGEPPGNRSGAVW
The data set can be described thus: KHYG-1 cytotoxicity assay: perforin-induced lysis of K562 target cells co-incubated with KHYG-1 NK cells. The note with it: 20 μM, K562 targets, ± SEM. Type of data set: cell-based. As to the method: KHYG-1 cells were washed and resuspended in RPMI + 0.1% BSA at 4 × 10^5 cells/mL, and an amount of 50 μL of KHYG-1 cells was dispensed to each well of a 96-well V-bottom plate. RPMI (50 μL) + 0.1% BSA or 10% (final concentration) of serum was added to each well. Then test compounds were added to KHYG-1 cells at various concentrations up to 20 μM and incubated at room temperature for 20 min. 1 × 10^6 K562 target cells were labeled with 75 μCi ^51Cr in 200 μL of RPMI for 90 min at 37 °C. Cells were washed as described above and resuspended in 5 mL of RPMI + 0.1% BSA. […] The percentage of specific cytotoxicity was calculated using the following formula: [drawing 4] and expressed as the mean of triplicate assays ± standard error of the mean.

For data set [2], the target named is T2, purified recombinant perforin (Mus musculus, UniProt P10820).
T2 sequence (P10820 21-554): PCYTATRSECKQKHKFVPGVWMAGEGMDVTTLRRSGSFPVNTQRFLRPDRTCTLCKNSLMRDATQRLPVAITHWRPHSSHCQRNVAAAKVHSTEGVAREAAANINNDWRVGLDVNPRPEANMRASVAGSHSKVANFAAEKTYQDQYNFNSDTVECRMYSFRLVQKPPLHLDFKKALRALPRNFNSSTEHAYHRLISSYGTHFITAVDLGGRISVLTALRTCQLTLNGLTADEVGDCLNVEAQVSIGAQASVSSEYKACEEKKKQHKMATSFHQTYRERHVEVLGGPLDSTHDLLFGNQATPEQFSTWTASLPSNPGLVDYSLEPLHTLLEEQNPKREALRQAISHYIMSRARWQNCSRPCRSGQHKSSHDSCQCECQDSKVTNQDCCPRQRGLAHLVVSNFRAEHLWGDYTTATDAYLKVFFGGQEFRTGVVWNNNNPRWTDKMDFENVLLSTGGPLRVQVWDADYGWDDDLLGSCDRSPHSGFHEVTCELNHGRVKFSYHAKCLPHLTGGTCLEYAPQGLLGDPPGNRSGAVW
The data set can be described thus: cell-based. Type of data set: cell-based. The note with it: lysis of Jurkat cells by purified recombinant perforin, 51Cr release, 0.1% BSA, average of at least three determinations; for IC50: read-out: inhibition of Jurkat cell lysis, IC50.
Procedure: The ability of the compounds to inhibit the lysis of nucleated (Jurkat T lymphoma) cells in the presence of 0.1% BSA was measured by release of ^51Cr label. Jurkat target cells were labeled by incubation in medium with 100 μCi ^51Cr for 1 h. The cells were then washed three times to remove unincorporated isotope and resuspended at 1 × 10^5 cells per milliliter in RPMI buffer supplemented with 0.1% BSA. […] Each data point was performed in triplicate, and an IC50 was calculated from the range of concentrations described above.

Data set [3] in a line: Aqueous solubility of parent compound and sodium salt. The note with it: aqueous medium (not further specified).
The nature of data set [4]: Toxicity to KHYG-1 NK cells (Trypan blue exclusion). Type of data set: cell-based, human. The following applies: human, KHYG-1 NK cells; 20 μM, 4 h exposure, viability after 24 h, Trypan blue, ± SEM. As to the method:
The toxicity assay was carried out in exactly the same manner as the killing assay above, but instead of adding the labeled K562 target cells, 100 μL of RPMI 0.1% BSA was added. Cells were incubated for 4 h at 37 °C and then washed ×3 in RPMI + 0.1% BSA. […] Trypan blue was added to each well. Viable (clear) cells and total (clear + blue) cells were counted, and the percentage of viable cells was calculated compared to DMSO treated cell control (% viability).

[5] abbreviates: 10% mouse serum, read-out: KHYG-1 inhibition (% at 20 μM), 10% serum.
Setting [6] is: no serum, vs untreated control, read-out: KHYG-1 inhibition (% at 20 μM), no serum.

For the compound `O=C1NC(=S)N/C1=C/c1ccc(-c2ccc3c(c2)CNC3=O)cn1` [compound 207], the inhibition – broadly, the percentage by which the read-out fell short of the control – at 20 µM was 13 ± 3.8% in data set [1] (setting [5]) and 43 ± 5.4% in data set [1] (setting [6]). Further, the IC50 (usually the concentration that gives 50% inhibition) in data set [2] stood at 0.63 µM. In data set [3], the solubility – broadly, how much of the substance goes into solution per volume – turned out to be 0.59 µg/mL. Moreover, the viability – broadly, the share of living cells, or the viability signal relative to a control – at 4 h, 20 µM in data set [4] was determined as 92 ± 2.6%.

For the compound `O=C1NC(=O)/C(=C\c2ccc(-c3ccc4c(c3)CNC4=O)s2)N1` [compound 136], the inhibition at 20 µM in data set [1] (setting [5]) was 50 ± 7.1%; in data set [1] (setting [6]) it was 49 ± 9.8%. In addition, in data set [2], the half-inhibitory concentration (IC50) amounted to 0.4 µM. Further, the solubility in data set [3] is 11.6 µg/mL. In data set [4], this compound yielded a viability at 4 h, 20 µM of 93 ± 3%. `CCCN1Cc2cc(-c3ccc(/C=C4/NC(=S)NC4=O)s3)ccc2C1=O` [compound 121]: the IC50 in data set [2] turned out to be 1.52 µM. As to `COC(=O)c1ccc(-c2ccc(/C=C3/NC(=S)NC3=O)s2)cc1` [compound 59], the IC50 in data set [2] stood at 1.62 µM. As to `O=C1NC(=S)N/C1=C/c1ccc(-c2ccc3c(c2)CN(CCO)C3=O)s1` [compound 125, (E,Z)-2-(2-Hydroxyethyl)-5-(5-((5-oxo-2-thioxoimidazolidin-4-ylidene)methyl)thiophen-2-yl)isoindolin-1-one], the inhibition at 20 µM was determined as 24 ± 3.4% in data set [1] (setting [5]) and 43 ± 5.8% in data set [1] (setting [6]). For the same compound, the IC50 in data set [2] is 0.78 µM. For the same compound, the solubility in data set [3] was 43 µg/mL. For the same compound, the viability at 4 h, 20 µM in data set [4] came out at 81 ± 0.5%.

`O=C1NC(=S)N/C1=C/c1ccc(-c2ccc3c(c2)C(=O)NCC3)s1` [compound 168]: the inhibition at 20 µM was 23 ± 7.1% in data set [1] (setting [5]) and 51 ± 4% in data set [1] (setting [6]). In addition, the IC50 in data set [2] is 0.64 µM. Also, in data set [3], the solubility came out at 0.13 µg/mL. Also, the viability at 4 h, 20 µM in data set [4] came out at 87 ± 4.1%. For `O=C1NC(=S)N/C1=C/c1ccc(-c2ccc(C(=O)NCCO)cc2)s1` [compound 72], the 50% inhibitory concentration (IC50) in data set [2] came to 3.64 µM. Regarding `CC(O)CNC(=O)c1ccc(-c2ccc(/C=C3/NC(=S)NC3=O)s2)cc1` (centres unmarked) [compound 74], in data set [2], the IC50 turned out to be 6.5 µM.

As for `O=C1NC(=S)N/C1=C/c1cc2ccc(-c3ccc4c(c3)CNC4=O)cc2[nH]1` [compound 208], the concentration for half-maximal inhibition (IC50) in data set [2] was determined as 1.58 µM. Take `O=C1NC(=S)N/C1=C/c1ccc(-c2ccc3c(c2)CN(CCCN2CCCC2)C3=O)s1` [compound 134]: the IC50 in data set [2] amounted to 8.93 µM. Same read-out and setting: the value for `O=C1NC(=S)N/C1=C/c1cc2cc(-c3ccc4c(c3)CNC4=O)ccc2[nH]1` [compound 209] was 2.5 µM; that for `CCCCN1Cc2cc(-c3ccc(/C=C4/NC(=S)NC4=O)s3)ccc2C1=O` [compound 122] was 1.18 µM. As for `O=C1NC(=S)N/C1=C/c1ccc(-c2ccc3c(c2)CN(CCCO)C3=O)s1` [compound 126], the inhibition at 20 µM in data set [1] (setting [5]) came to 17 ± 3%; in data set [1] (setting [6]), 48 ± 7.9%. Also, the concentration for half-maximal inhibition (IC50) in data set [2] was determined as 0.53 µM. Further, the solubility in data set [3] worked out at 1.78 µg/mL. In data set [4], this compound registered a viability at 4 h, 20 µM of 90 ± 3%. Consider `O=C1NC(=S)N/C1=C/c1ccc(-c2ccc(Cl)cc2)s1` [compound 46], for which the IC50 in data set [2] was 5.22 µM.

For `O=C1NC(=S)N/C1=C/c1ccc(-c2ccc(C(F)(F)F)cc2)s1` [compound 51], the IC50 in data set [2] worked out at 4.66 µM. Turning to `CN1Cc2ccc(-c3ccc(/C=C4/NC(=S)NC4=O)s3)cc2C1=O` [compound 166, (E,Z)-2-Methyl-6-(5-((5-oxo-2-thioxoimidazolidin-4-ylidene)methyl)thiophen-2-yl)isoindolin-1-one], the IC50 in data set [2] came to 1.89 µM.

As for `O=C1NC(=S)N/C1=C/c1ccc(-c2cccc(C(F)(F)F)c2)s1` [compound 50], in data set [2], the IC50 came out at 5.66 µM. With `CCOC(=O)N1Cc2cc(-c3ccc(/C=C4/NC(=S)NC4=O)s3)ccc2C1=O` [compound 129], the inhibition at 20 µM was 35 ± 9.5% in data set [1] (setting [5]) and 46 ± 5.9% in data set [1] (setting [6]). For the same compound, the IC50 in data set [2] was determined as 0.55 µM. For the same compound, the solubility in data set [3] was 0.18 µg/mL. For the same compound, the viability at 4 h, 20 µM in data set [4] came out at 93 ± 4.1%. For `O=C1NC(=S)N/C1=C/c1ccc(-c2ccc(F)c(F)c2)s1` [compound 49], in data set [2], the IC50 was found to be 4.59 µM. As for `O=C1NC(=S)N/C1=C/c1ccc(-c2ccccc2)s1` [compound 43], in data set [2], the “inhibition of Jurkat cell lysis, IC50” value is listed as “no detectable activity” and the IC50 is more than 20 µM.

Turning to `O=C1NC(=S)N/C1=C/c1ccc(-c2ccc(F)cc2)s1` [compound 48], the concentration for half-maximal inhibition (IC50) in data set [2] was found to be 6.69 µM. As to `O=C1NC(=S)N/C1=C/c1ccc(-c2ccc3c(c2)C(=O)NC3)s1` [compound 165], the IC50 in data set [2] worked out at 1.38 µM. Regarding `CS(=O)(=O)c1ccc(-c2ccc(/C=C3/NC(=S)NC3=O)s2)cc1` [compound 63], in data set [2], the IC50 came out at 13.8 µM. In the case of `CC(=O)c1cn(C)c2ccc(-c3ccc(/C=C4\NC(=S)NC4=O)s3)cc12` [compound 178], the 50% inhibitory concentration (IC50) in data set [2] turned out to be 5.3 µM. Take `O=C1NC(=S)N/C1=C/c1ccc(-c2ccncc2)s1` [compound 66]: the IC50 in data set [2] was determined as 10.1 µM.

With `O=C1NC(=S)N/C1=C/c1ccc(-c2cccc(F)c2)s1` [compound 47], the half-inhibitory concentration (IC50) in data set [2] came to 10.8 µM. For `O=C1NC(=S)N/C1=C/c1ccc(-c2ccccc2Cl)s1` [compound 44], in data set [2], the 50% inhibitory concentration (IC50) is more than 20 µM. For `N#Cc1cccc(-c2ccc(/C=C3/NC(=S)NC3=O)s2)c1` [compound 52], the IC50 in data set [2] worked out at 9.68 µM. As to `CN1Cc2cc(-c3ccc(/C=C4/NC(=S)NC4=O)s3)ccc2C1=O` [compound 119, (E,Z)-2-Methyl-5-(5-((5-oxo-2-thioxoimidazolidin-4-ylidene)methyl)thiophen-2-yl)isoindolin-1-one], the figures for the inhibition at 20 µM in data set [1] (setting [5]) and in data set [1] (setting [6]) were 37 ± 2.4% and 42 ± 5.5%, respectively. Moreover, the solubility in data set [3] was 0.13 µg/mL. The viability at 4 h, 20 µM in data set [4] worked out at 28 ± 1.5%. Regarding `O=C1NC(=S)N/C1=C\c1cccc(-c2ccc3c(c2)CNC3=O)c1` [compound 206], the IC50 in data set [2] was found to be 3.44 µM.

On to `COC(=O)c1ccc(-c2ccc(/C=C3/NC(=S)NC3=O)s2)cc1C` [compound 62], for which, in data set [2], the IC50 was found to be 3.03 µM.

Turning to `O=C1NC(=S)N/C1=C/c1ccc(-c2ccc(C(=O)NCCCN3CCOCC3)cc2)s1` [compound 71], the IC50 in data set [2] worked out at 8.13 µM. `CSc1ccc(-c2ccc(/C=C3/NC(=S)NC3=O)s2)cc1` [compound 56]: the IC50 in data set [2] worked out at 1.15 µM. Still for that read-out and setting: the value for `CC(=O)N1Cc2cc(-c3ccc(/C=C4/NC(=S)NC4=O)s3)ccc2C1=O` [compound 128] was 0.93 µM. Turning to `CN1CCN(CCCN2Cc3cc(-c4ccc(/C=C5/NC(=S)NC5=O)s4)ccc3C2=O)CC1` [compound 133], in data set [2], the 50% inhibitory concentration (IC50) was more than 20 µM. In the case of `CN1CCc2cc(-c3ccc(/C=C4/NC(=S)NC4=O)s3)ccc2C1=O` [compound 169], the concentration for half-maximal inhibition (IC50) in data set [2] worked out at 2.33 µM. With `O=C1NC(=S)N/C1=C/c1ccc(-c2ccc3c(c2)CN(CC(O)CO)C3=O)s1` (centres unmarked) [compound 127], in data set [2], the 50% inhibitory concentration (IC50) turned out to be 1.26 µM. On the same count and under the same terms, the figure for `O=C1NC(=S)N/C1=C/c1ccc(-c2cccnc2)s1` [compound 65] is 12.9 µM; for `O=C1NC(=S)N/C1=C/c1ccc(-c2ccc(C(=O)NCCCO)cc2)s1` [compound 73] it is 4.35 µM. `O=C1NC(=S)N/C1=C/c1ccc(-c2ccc(O)cc2)s1` [compound 53]: the IC50 in data set [2] came out at 7.72 µM.

The values above are taken from article PMC3865801 (Journal of Medicinal Chemistry, 2013).
